Data published in patent publication US6951887B2 (The Research Foundation of State University of New York, priority 1998, dated 2005).

Experiments:
A549 (Lung) = assay: killing of cultured cells, A549; format: cell-based; parameters: key to cells killed by treatment: “+” indicates that the cells were killed by treatment; “−” indicates that they were not; “+/−” indicates a slow marginal response seen only in a few special cases with fibroblasts experimentally transformed by introduction of the ras oncogene
Description: (§1) Table 1: Summarized are the responses of cells in culture to killing by example members of the family of blocked lipoate derivatives that are the object of this invention as well as one control compound (dihydroxyoctanoic acid). At right is indicated the specific cell line followed by the tissue of origin of the cell line. Across the top are listed the specific compounds tested. Each blocked lipoate derivative was used at two to fourfold above its threshold killing concentration. [These concentrations range form 0.15 mM (60 ug/ml or 60 mg/kg) to 2.5 mM (800 ug/ml or 800 mg/kg) (see EXAMPLE 11).] […] “+/−” indicates a slow marginal response seen only in a few special cases with fibroblasts experimentally transformed by introduction of the ras oncogene (EXAMPLE 10).
(§2) First, each cell type to be tested was plated at low densities in the wells of a standard 6×24 well tissue culture plate. (Multiple wells are seeded for each cell type.)
(§3) Second, the cells were allowed to grow to moderate densities. Transformed cells are in contact and non-transformed cells are contact-inhibited under these conditions.
(§4) Third, the lipoate derivatives to be tested were added to individual wells. In these experiments each compound was added at two to fourfold above the threshold killing concentration for cancer cells (EXAMPLE 11).
(§5) Fourth, cells were monitored over the next several days.

LnCap (Prostate) = assay: killing of cultured cells, LnCap; format: cell-based; parameters: key: “+” indicates that the cells were killed by treatment; “−” indicates that they were not; “+/−” indicates a slow marginal response seen only in a few special cases with fibroblasts experimentally transformed by introduction of the ras oncogene; conditions: compound at two to fourfold above its threshold killing concentration
Description: as §1, §2, §3, §4, §5

B-16 melanoma = assay: B-16 system, cells injected IP; format: in vivo, mouse; conditions: 100 mg/kg IP twice a day, 16 days, B-16 cells IP in C57/BL mice
Description: The B-16 melanoma strain was introduced either subcutaneously or intraperitoneally into individuals of the C57/BL syngeneic mouse strain (7). When left untreated such mice develop massive tumors in the immediate area of injection as well as secondary metastases throughout the animal—including in the liver and the lungs. These malignant growths result in the early death of the animals. Moreover, the resulting malignant growths are made up of darkly pigmented malignant melanocytes—making their assessment convenient and highly reliable. We will henceforth refer to this as the “B-16 system”.
First, a group of mice were injected IP with B-16 cells. The injected group was divided at random into two equal subsets. One subset (experimental) was injected IP twice a day with 100 mg/kg of the bis-benzoyl lipoate member of the compound class in 200 ul of 10% ethanol. [See EXAMPLES 3, 8 and 11 for descriptions of bis-benzoyl lipoate.] The second subset (control) was injected with 200 ul of 10% ethanol alone.
After 16 days, the animals were examined—including by dissection where appropriate. The control animals had numerous, massive IP tumor masses.

cancer cells in culture = assay: threshold killing concentration and dose response in cultured cells; format: cell-based
Description: First, each compound killed cancer cells in culture at or above a relatively narrow, specific concentration range, but not below. The threshold concentrations given below represent the approximate center of this range which extended roughly two to threefold. […] Below these saturation ranges, sensitive cells survived and grew. They could be removed and replated to grow, apparently indefinitely, under these conditions. […] This was a highly unusual dose/response profile. The threshold killing concentrations (ranges) varied between individual compounds. Examples of these threshold killing concentrations were as follows: bis-benzoyl lipoate (EXAMPLE 3) 60 mg/liter (60 mg/kg), monoacetyl lipoate (EXAMPLE 4) 100 mg/liter (100 mg/kg); bis-acetyl lipoate (EXAMPLE 2) 600 mg/liter (600 mg/kg).
These changes were ultimately followed by cell death if treatment was continued. However, these morphological changes were reversed, and the cells recovered, if the lipoate derivative was removed during this initial exposure. As with the dose/response profile of the preceeding paragraph, this reversible induction of morphological change followed by commitment to cell death is highly idiosyncratic. The discovery that this behavior was shown by all tested members of the class of compounds that are the object of this invention was, again, very strong evidence that these compounds are, in fact, a functionally coherent class.

C57/BL mice = assay: nonspecific toxicity by intraperitoneal injection; conditions: mouse, in vivo, ip
Procedure: (All studies described in this section were carried out by intraperitoneal (IP) injection into C57/BL mice.)

SW480 (Colon) = assay: killing of cultured cells, SW480; format: cell-based; parameters: key: “+” indicates that the cells were killed by treatment; “−” indicates that they were not; “+/−” indicates a slow marginal response seen only in a few special cases with fibroblasts experimentally transformed by introduction of the ras oncogene; conditions: compound at two to fourfold above its threshold killing concentration
Description: as §1, §2, §3, §4, §5

HeLa cells = assay: killing of HeLa cells with or without dichloroacetate (DCA); format: cell-based; conditions: compound ca. twofold above threshold killing dose plus 5 mM DCA
Procedure: HeLa cells were plated at moderate densities and allowed to attach and grow for ca. 24 hours in a series of wells in a multi-well tissue culture plate. To individual wells of the first subset (control) were added bis-acetyl lipoate, mono-acetyl lipoate or bis-benzoyl lipoate—each at ca. twofold above the threshold killing dose (EXAMPLE 11). To an equivalent (experimental) subset of wells were added these same compounds at the same dose together with the simultaneous addition of DCA to 5 mM final concentration.

Hep G2 = assay: killing of cultured cells, Hep G2; format: cell-based; parameters: key to cells killed by treatment: “+” indicates that the cells were killed by treatment; “−” indicates that they were not; “+/−” indicates a slow marginal response seen only in a few special cases with fibroblasts experimentally transformed by introduction of the ras oncogene
Description: as §1, §2, §3, §4, §5

SMILES: O=C(O)CCCCC(CCSC(=O)c1ccccc1)SC(=O)c1ccccc1 (centres unmarked) [bis-benzoyl lipoate, 6,8-bisbenzoylmercaptooctanoic acid]
- cell killing, lung cancer cells (FIG. 1) (A549 (Lung); 120 ug/ml, ca. 48 hours): efficiently killed
- cells killed by treatment (A549 (Lung); A549, Lung, compound at two to fourfold above its threshold killing concentration): +
- cells killed by treatment (LnCap (Prostate)): +
- tumor mass relative to the control sample (B-16 melanoma): 30-50%
- effective dose in cell culture (cancer cells in culture): 60 µg/mL
- threshold killing concentration (cancer cells in culture; approximate center of a range extending two to threefold): 60 mg/L
- maximum well-tolerated dose (C57/BL mice): ca. 500 mg/kg
- cells killed by treatment (SW480 (Colon)): +
- speed of cell killing with DCA relative to compound alone (HeLa cells): approximately twvice as rapidly
- cell killing, liver cancer cells (FIG. 1) (Hep G2; 120 ug/ml, ca. 48 hours): efficiently killed
- cells killed by treatment (Hep G2; Hep G2, compound at two to fourfold above its threshold killing concentration): +
